Results on 20 compounds are retold here after patent publication US20240350643A1, “PROTEIN DEGRADATION AGENT” (SUZHOU KINTOR PHARMACEUTICALS, INC., priority 2021, published 2024).

The target in one assay is T1, c-Myc protein (Homo sapiens, UniProt P01106).
T1 construct: endogenous in cells; host or cells: HL60 cells
Nature of the assay: Ability of compounds to degrade c-Myc protein in HL60 cells (ELISA). The format is cell-based. The conditions noted are these: HL-60, 1 μM compound, 24 h, read-out: HL60 cells Protein degradation rate (1 μM). How it is done: I Activity test 1: Ability of compounds to degrade c-Myc protein in HL60 cells:
HL60 cells in the exponential growth phase were centrifuged, diluted with fresh culture mediums to 6×10^4 cells/100 μL and plated into a 96-well plate at 100 μL per well.
Preparation of test compounds: the compounds were weighed and diluted with DMSO to a 10 mM stock solution for later use. According to test requirements, drugs were diluted with cell culture mediums, with ten-fold dilutions starting from 10 μM, to achieve 3 concentration gradients: 10 μM, 1 μM and 100 NM; and finally, 1 μL of the drugs (DMSO content: 0.01%) were added to each well. For the blank control group, DMSO was also diluted with cell culture mediums, and finally, 1 μL of the control reagent (DMSO content: 0.01%) was added to each well.
3. Effect of drugs on c-Myc in cells as determined by ELISA
After 24 h of drug action, the culture mediums were removed, and the cells were washed once with ice-cold 1× PBS. PBS was removed, and 100 μL of ice-cold 1× Cell Lysis Buffer plus 1 mM phenylmethylsulfonyl fluoride (PMSF) was added to each well. The plate was incubated on ice for 20 min and centrifuged at 4000 RPM at 4° C. for 10 min for later use.
4. Reagent and antibody preparation in ELISA kit 1× wash buffer • 1). 16 mL of ELISA wash buffer concentrate (25×) was diluted with 384 mL of deionized water or distilled water, labeled as 1× Wash Buffer. • 2). The concentrate and 1× Wash Buffer were stored in the refrigerator. The diluted buffer was used within 14 days.
The cell extraction buffer contains 10 mM Tris (pH 7.4), 100 mM NaCl, 1 mM EDTA, 1 mM EGTA, 1 mM NaF, 20 mM Na4P2O7 2 mM Na3VO4. 1% Triton™ ×-100, 10% glycerol, 0.1% SDS and 0.5% deoxycholate. Immediately before use, PMSF (0.3 M stock solution in DMSO) was added to the buffer to a final concentration of 1 mM.
Standard curve configuration: The standard liquid was diluted using glass or plastic tubes. • 1). Huc-Myc (total) standard liquid (Invitrogen, KH02041) was reconstituted with a standard dilution to 1000 pg/mL. Refer to the standard vial label for instructions. The contents were gently swirled or mixed and then allowed to stand for 10 minutes to ensure complete reconstitution, labeled as 1,000 pg/mL human c-Myc. The standard liquid was used within 1 hour after reconstitution. • 2). 250 μL of standard dilution buffers were added to 7 test tubes respectively labeled 500, 250, 125, 62.5, 31.25, 15,63 and 0 pg/mL. • 3). 250 μL of the 1000 pg/ml standard stock solution was added to the first EP tube to a concentration of 500 pg/mL, vortexed and mixed evenly. 250 μL of the resulting mixture was further pipetted and added to the second EP tube to a concentration of 250 pg/mL. Serial dilutions were performed until the sixth EP tube with a concentration of 15.63 pg/mL. Dilution was not performed on the last EP tube. • 4). The remaining reconstituted standard liquid should be discarded, or aliquoted and frozen at −80° C. for further use. Standards can be frozen and thawed only once without losing immunoreactivity.
1× anti-rabbit IgG HRP solution: 1× anti-rabbit IgG HRP solution was prepared within 15 minutes of use. The anti-rabbit IgG HRP (100×) contained 50% viscous glycerol. To ensure accurate dilutions, the following operations were carried out: 1 For each 8-well test strip used in the test, 10 μl, of the anti-rabbit IgG -IRP (100×) solution was pipetted, wherein the pipette tip was wiped with clean absorbent paper to remove excess solutions, and then the solution was dispensed into a test tube containing 1 mL of HRP diluent and mixed thoroughly. 2. The unused anti-rabbit IgG HRP (100×) was placed in the refrigerator for storage.
50 μL of the standard liquid was added to the appropriate wells and not added to the blank control well. Except for the blank control well, 50 μL of Hu c-Myc (total) detection antibody solution was added to each well and mixed by tapping the side face of the plate. […]

For a further assay, the system named is HL60 cells. Nature of the assay: Anti-proliferation ability of compounds on HL60 cells (CTG). It counts as cell-based, human. The conditions noted are these: Homo sapiens, HL-60, 72 h, 3 days, CellTiter-Glo, read-out: HL60 cells Proliferation inhibitory activity. How it is done:
II. Activity test 2: Anti-proliferation ability of compounds on HL60 cells: 1 Cell plating
HL60 cells in the logarithmic growth phase were counted and plated evenly in a 96-well transparent bottom white plate at 20000 cells per well and 100 μL per well.
A certain amount of the compounds was weighed and diluted with DMSO to a 10 mM stock solution. The culture mediums corresponding to the cells were taken, and the drugs were diluted to the concentration required by the test, shaken gently and mixed evenly. 50 μl of the gradient dilution of the diluted compound was added to each well of the plated cells, and 50 μL of 0.1% DMSO was added to the control group. The plate was shaken gently, mixed evenly and incubated in a cell culture incubator for 3 days.
• 3.1 The CellTiter-GLo™ (CTG) reagent was taken in advance from the −20° C. refrigerator and equilibrated to room temperature in the dark (white bottle+brown bottle, 1:1 mixing evenly into the brown bottle, for later use). • 3.2 The 96-well plate was taken out and inspected under a microscope for growth situation. • 3.3 The bottom of the 96-well plate was tagged with white paper, and then the plate was wrapped with tin foil paper, shaken at 37° C. at 300 r for 10 min and mixed evenly. • 3.4 50 ul of CTG detection reagent was added to each well, Luminescence signal was detected using a microplate reader, and the inhibition rate was calculated. IC50 values of the compounds were calculated by XLfit software to evaluate the proliferation inhibitory activity on HL60 cells.

T1 sequence (P01106 whole entry): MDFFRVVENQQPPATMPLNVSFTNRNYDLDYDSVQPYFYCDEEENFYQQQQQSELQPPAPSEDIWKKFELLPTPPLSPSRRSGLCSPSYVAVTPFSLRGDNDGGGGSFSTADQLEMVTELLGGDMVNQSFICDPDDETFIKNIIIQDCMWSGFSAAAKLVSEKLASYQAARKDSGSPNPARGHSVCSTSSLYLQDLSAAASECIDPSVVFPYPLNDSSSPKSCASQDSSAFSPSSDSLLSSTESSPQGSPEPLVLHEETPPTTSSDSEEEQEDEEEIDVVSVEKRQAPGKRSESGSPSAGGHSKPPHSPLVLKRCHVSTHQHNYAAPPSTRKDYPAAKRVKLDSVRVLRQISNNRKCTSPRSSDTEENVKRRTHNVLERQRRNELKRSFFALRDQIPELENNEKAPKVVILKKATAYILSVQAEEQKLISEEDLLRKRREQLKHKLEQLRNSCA

As to `O=C1CCC(N2C(=O)c3ccc(C(=O)NCCCCCCNC(=O)n4c5ccccc5c5ccccc54)cc3C2=O)C(=O)N1` (stereo not shown) [A12], the inhibition at 1 µM on c-Myc protein lay within 30 to 60%. The IC50 in the assay with HL60 cells amounted to 1060 ± 62 nM.
For `O=C(CCn1c2ccccc2c2ccccc21)NCCCCCCNC(=O)c1ccc2c(c1)C(=O)N(C1CCC(=O)NC1=O)C2=O` (stereo not shown) [A13] the same measures were 10 to 30% and 1270 ± 51 nM.
With `O=C(Cn1c2ccccc2c2ccccc21)NCCCCCCCCNC(=O)c1ccc2c(c1)C(=O)N(C1CCC(=O)NC1=O)C2=O` (stereo not shown) [A14], the inhibition at 1 µM on c-Myc protein was 30 to 60%. Further, in the assay with HL60 cells, the IC50 was 226 ± 72 nM.
In the same order, the values of `O=C(Cc1cccc2ccccc12)NCCCCCCCCNc1ccc2c(c1)C(=O)N(C1CCC(=O)NC1=O)C2=O` (stereo not shown) [A15] are 60 to 90% and 16.3 ± 3.3 nM.
`O=C(Cn1c2ccccc2c2cccnc21)NCCCCCCCCNc1ccc2c(c1)C(=O)N(C1CCC(=O)NC1=O)C2=O` (stereo not shown) [A16]: the inhibition at 1 µM at c-Myc protein was 60 to 90%. Besides, the IC50 in the assay with HL60 cells is 21.2 ± 6.1 nM.
For `O=C(Cc1cccc2ccccc12)NCCCCCCCCOc1ccc2c(c1)C(=O)N(C1CCC(=O)NC1=O)C2=O` (stereo not shown) [A17] the same measures were 30 to 60% and 3590 ± 1180 nM.
With `O=C(Cn1c2ccccc2c2cccnc21)NCCCCCCCCOc1ccc2c(c1)C(=O)N(C1CCC(=O)NC1=O)C2=O` (stereo not shown) [A18], the inhibition at 1 µM on c-Myc protein lay in the range of 30 to 60%. In addition, in the assay on HL60 cells, the IC50 worked out at 1220 ± 217 nM.
In the same order, the values of `O=C(Cc1cccc2ccccc12)NCCCCCCCCCc1ccc2c(c1)C(=O)N(C1CCC(=O)NC1=O)C2=O` (stereo not shown) [A19] are 60 to 90% and 585 ± 79.8 nM.
For `O=C(Cn1c2ccccc2c2cccnc21)NCCCCCCCCCc1ccc2c(c1)C(=O)N(C1CCC(=O)NC1=O)C2=O` (stereo not shown) [A20] the same measures were 60 to 90% and 490 ± 64.9 nM.
In the same order, the values of `O=C1CCC(N2C(=O)c3ccc(CCCCCCC(=O)N(Cc4ccccc4)Cc4ccccc4)cc3C2=O)C(=O)N1` (stereo not shown) [A21] are 10 to 30% and 178 ± 68.4 nM.
As for `O=C(Cc1cccc2ccccc12)NC[C@H]1CC[C@H](CNC(=O)c2ccc3c(c2)C(=O)N(C2CCC(=O)NC2=O)C3=O)CC1` (stereo partly shown) [A22], on c-Myc protein, the inhibition at 1 µM lay in the range of 30 to 60%. In addition, in the assay with HL60 cells, the IC50 worked out at 29.2 ± 14.4 nM.
In the same order, the values of `O=C(Cn1c2ccccc2c2ccccc21)NC[C@H]1CC[C@H](CNC(=O)c2ccc3c(c2)C(=O)N(C2CCC(=O)NC2=O)C3=O)CC1` (stereo partly shown) [A23] are 30 to 60% and 55.4 ± 6.7 nM.
In the same order, the values of `O=C(Cn1c2ccccc2c2cccnc21)NC[C@H]1CC[C@H](CNC(=O)c2ccc3c(c2)C(=O)N(C2CCC(=O)NC2=O)C3=O)CC1` (stereo partly shown) [A24] are 30 to 60% and 103 ± 53.2 nM.
For `O=C(Cn1c2ccccc2c2ccncc21)NC[C@H]1CC[C@H](CNC(=O)c2ccc3c(c2)C(=O)N(C2CCC(=O)NC2=O)C3=O)CC1` (stereo partly shown) [A25] the same measures were 30 to 60% and 270 ± 126 nM.
Turning to `CC(C)(C)OC(=O)NC[C@H]1CC[C@H](CNC(=O)c2ccc3c(c2)C(=O)N(C2CCC(=O)NC2=O)C3=O)CC1` (stereo partly shown) [A26], at c-Myc protein, the inhibition at 1 µM was in the range of 30 to 60%. In the assay on HL60 cells, the IC50 is 2820 ± 1060 nM.
For `O=C(Cc1cccc2ccccc12)NC[C@H]1CC[C@H](CNc2ccc3c(c2)C(=O)N(C2CCC(=O)NC2=O)C3=O)CC1` (stereo partly shown) [A27], the inhibition at 1 µM on c-Myc protein lay in the range of 10 to 30%. Moreover, the IC50 with HL60 cells turned out to be 6800 ± 1540 nM.
With `CC(C)(C)OC(=O)NC[C@H]1CC[C@H](CNc2ccc3c(c2)C(=O)N(C2CCC(=O)NC2=O)C3=O)CC1` (stereo partly shown) [A28], the inhibition at 1 µM at c-Myc protein lay in the range of 60 to 90%. The IC50 in the assay on HL60 cells is 5060 ± 137 nM.
In the same order, the values of `O=C(Cc1cccc2ccccc12)NCc1ccc(CNC(=O)c2ccc3c(c2)C(=O)N(C2CCC(=O)NC2=O)C3=O)cc1` (stereo not shown) [A29] are 60 to 90% and 30.1 ± 21.1 nM.
In the same order, the values of `O=C(Cn1c2ccccc2c2cccnc21)NCc1ccc(CNC(=O)c2ccc3c(c2)C(=O)N(C2CCC(=O)NC2=O)C3=O)cc1` (stereo not shown) [A30] are 60 to 90% and 18 ± 11.5 nM.
In the case of `CC(C)(C(=O)NCc1ccc(CNC(=O)c2ccc3c(c2)C(=O)N(C2CCC(=O)NC2=O)C3=O)cc1)c1cccc2ccccc12` (stereo not shown) [A31], the inhibition at 1 µM on c-Myc protein fell in the range of 60 to 90%. The IC50 in the assay on HL60 cells was 1360 nM.
